Blank lines part the entries; values can stand above or below the compound they belong to.
What was measured:
[1] = test system: CPT-induced Top1-DNA cleavage complexes; assay: Immunocomplex of enzyme; assay type: cell-based; settings: data not shown
human Top1 = biological target: T1, human Top1 (Homo sapiens, UniProt P11387); assay: Top1 DNA relaxation counter-screen assay; assay type: biochemical; settings: up to 100 μM
T1 sequence (P11387 1-765): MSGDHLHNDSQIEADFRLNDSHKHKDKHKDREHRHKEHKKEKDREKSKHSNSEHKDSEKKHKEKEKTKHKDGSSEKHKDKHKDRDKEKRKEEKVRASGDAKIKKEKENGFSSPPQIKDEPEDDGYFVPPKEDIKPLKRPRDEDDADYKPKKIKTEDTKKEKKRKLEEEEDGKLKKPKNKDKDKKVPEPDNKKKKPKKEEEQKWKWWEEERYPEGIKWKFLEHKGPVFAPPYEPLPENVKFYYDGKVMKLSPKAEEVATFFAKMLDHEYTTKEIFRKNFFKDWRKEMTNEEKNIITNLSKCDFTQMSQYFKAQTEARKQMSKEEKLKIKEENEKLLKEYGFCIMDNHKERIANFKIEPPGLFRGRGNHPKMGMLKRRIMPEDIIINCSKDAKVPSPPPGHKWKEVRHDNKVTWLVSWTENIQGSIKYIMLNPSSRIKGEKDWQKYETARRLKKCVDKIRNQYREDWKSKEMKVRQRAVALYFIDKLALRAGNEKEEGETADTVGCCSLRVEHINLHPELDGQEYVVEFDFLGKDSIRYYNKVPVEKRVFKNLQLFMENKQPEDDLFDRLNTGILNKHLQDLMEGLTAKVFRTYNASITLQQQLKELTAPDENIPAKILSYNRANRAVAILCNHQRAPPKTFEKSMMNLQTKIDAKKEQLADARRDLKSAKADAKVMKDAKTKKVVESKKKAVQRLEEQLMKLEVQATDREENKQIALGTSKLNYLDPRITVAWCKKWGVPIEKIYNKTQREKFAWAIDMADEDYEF

[2] = biological target: apurinic/apyrimidinic endonuclease (APE1) (Homo sapiens, UniProt P27695); assay: APE1 counter-screen gel-based assay; assay type: biochemical; settings: up to 100 μM
Tdp1 [3] = settings: NCI-DTP diversity set screen; ref [31]; cited from earlier work
recombinant Tdp1 [4] = biological target: T2, recombinant Tdp1 (Homo sapiens, UniProt Q9NUW8); assay: Surface plasmon resonance direct binding; settings: ten successive 2-fold dilutions from 100 μM
HCT116 cells = assay: Cellular studies alone and in combination with CPT; assay type: cell-based; settings: data not shown
[5] = biological target: Tdp1 H493R (SCAN1 mutant) (Homo sapiens, UniProt Q9NUW8, H493R); assay: SCAN1 mutant gel assay of Tdp1-DNA covalent complex formation; assay type: biochemical; settings: 100 nM H493R; DNA sequencing and protein SDS-PAGE gels
recombinant Tdp1 [6] = biological target: T2, recombinant Tdp1; assay: Tdp1 gel-based assay; assay type: biochemical; settings: single-stranded N14Y substrate
Tdp1 [7] = settings: ref [28], [29]; cited from earlier work

T2 sequence (Q9NUW8 whole entry): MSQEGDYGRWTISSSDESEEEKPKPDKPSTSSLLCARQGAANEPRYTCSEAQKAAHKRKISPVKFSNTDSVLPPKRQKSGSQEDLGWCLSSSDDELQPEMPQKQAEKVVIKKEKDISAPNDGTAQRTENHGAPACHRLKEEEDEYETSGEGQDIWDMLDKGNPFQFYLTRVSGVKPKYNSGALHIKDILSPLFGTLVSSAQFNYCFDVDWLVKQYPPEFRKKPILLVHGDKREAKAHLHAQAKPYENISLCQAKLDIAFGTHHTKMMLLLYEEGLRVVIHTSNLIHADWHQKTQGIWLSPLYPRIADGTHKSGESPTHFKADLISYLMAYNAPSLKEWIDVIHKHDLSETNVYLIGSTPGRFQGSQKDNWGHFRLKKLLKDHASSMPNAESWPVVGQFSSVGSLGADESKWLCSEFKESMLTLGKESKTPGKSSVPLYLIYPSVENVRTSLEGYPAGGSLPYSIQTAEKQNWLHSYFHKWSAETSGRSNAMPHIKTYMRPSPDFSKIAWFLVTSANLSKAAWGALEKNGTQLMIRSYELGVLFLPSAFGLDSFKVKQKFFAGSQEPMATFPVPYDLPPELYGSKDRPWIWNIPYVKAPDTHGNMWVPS
Sequence of Tdp1 H493R (SCAN1 mutant) (Q9NUW8 whole entry H493R): as the sequence (Q9NUW8 whole entry) above, with H493R counted along it
Sequence of apurinic/apyrimidinic endonuclease (APE1) (P27695 whole entry): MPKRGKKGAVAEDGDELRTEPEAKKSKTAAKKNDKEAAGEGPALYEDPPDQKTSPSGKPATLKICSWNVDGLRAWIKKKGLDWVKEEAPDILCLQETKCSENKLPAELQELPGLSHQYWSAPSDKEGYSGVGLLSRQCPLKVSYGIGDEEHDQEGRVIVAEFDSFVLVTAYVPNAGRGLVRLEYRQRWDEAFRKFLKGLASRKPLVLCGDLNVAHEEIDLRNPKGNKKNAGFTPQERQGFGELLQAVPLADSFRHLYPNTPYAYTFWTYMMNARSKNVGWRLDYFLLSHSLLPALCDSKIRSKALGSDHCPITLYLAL

Compound: C[C@]12CC[C@H]3[C@@H](CCC4=CC(=O)CC[C@@]43C)[C@@H]1CC[C@@H]2C(=O)COS(=O)(=O)c1ccc(Br)cc1 [compound 1, 4-Pregnen-21-ol-3,20-dione-21-(4-bromobenzenesufonate)]
enhancement of CPT-induced Top1-DNA cleavage complexes [1]: did not observe an enhancement
inhibition of human Top1 (DNA relaxation) (human Top1): No evidence for inhibition
inhibition of APE1 [2]: No evidence for inhibition
inhibitory activity against Tdp1 in high-throughput screen (Tdp1 [3]): low micromolar concentrations
binding to surface-bound Tdp1 (SPR) (recombinant Tdp1 [4]): direct binding
effect in combination with camptothecin in HCT116 cells (HCT116 cells): only an additive effect
activity by itself in HCT116 cells (HCT116 cells; up to 25 μM): limited activity
formation of Tdp1-DNA covalent complexes by H493R mutant [5]: concentration-dependent decrease

Compound: C[C@]12CC[C@H]3[C@@H](CCC4=CC(=O)CC[C@@]43C)[C@@H]1CC[C@@H]2C(=O)COS(C)(=O)=O [compound 7]
binding to surface-bound Tdp1 (SPR) (recombinant Tdp1 [4]): No interaction
Tdp1 inhibitory activity (in words) (recombinant Tdp1 [6]): minimally active

Tdp1 inhibitory activity (in words) (recombinant Tdp1 [6]): weakly active
Compound: CC(=O)[C@H]1CC[C@H]2[C@@H]3CCC4=CC(=O)CC[C@]4(C)[C@H]3CC[C@]12C [progesterone, reference compound]

Compound: [O]=[W](=[O])([O-])[O-] [tungstate]
concentration at which Tdp1 is inhibited (Tdp1 [7]): millimolar concentrations

Compound: [O]=[V]([O-])([O-])[O-] [vanadate]
concentration at which Tdp1 is inhibited (Tdp1 [7]): millimolar concentrations

Source: PMC2784989 (Journal of medicinal chemistry, 2009)
